Test results published in ChEMBL document CHEMBL2074511, “Molecular cloning and pharmacological characterization of rat multidrug resistance protein 1 (mrp1)” (Drug Metab Dispos, 2003).

The compounds below were run on Multidrug resistance-associated protein 1 (assay: TP_TRANSPORTER: drug resistance in MRP1-expressing HEK293 cells). Details: human.
Format: functional, cell-based

Activity	Compound
substrate []	COc1cc([C@@H]2c3cc4c(cc3[C@@H](O[C@@H]3O[C@@H]5CO[C@@H](C)O[C@H]5[C@H](O)[C@H]3O)[C@H]3COC(=O)[C@H]23)OCO4)cc(OC)c1O [ETOPOSIDE]
substrate []	COc1cccc2c1C(=O)c1c(O)c3c(c(O)c1C2=O)C[C@@](O)(C(=O)CO)C[C@@H]3O[C@H]1C[C@H](N)[C@H](O)[C@H](C)O1 [DOXORUBICIN]
substrate []	COc1cccc2c1C(=O)c1c(O)c3c(c(O)c1C2=O)C[C@@](O)(C(=O)CO)C[C@@H]3O[C@H]1C[C@H](N)[C@@H](O)[C@H](C)O1 [EPIRUBICIN]
substrate []	CC[C@]1(O)C[C@H]2CN(CCc3c([nH]c4ccccc34)[C@@](C(=O)OC)(c3cc4c(cc3OC)N(C=O)[C@H]3[C@@](O)(C(=O)OC)[C@H](OC(C)=O)[C@]5(CC)C=CCN6CC[C@]43[C@@H]65)C2)C1 [VINCRISTINE]
